Values of other authors in patent publication US6777002B1, “Process for microencapsulation of water soluble substances” (Debio Recherche Pharmaceutique S.A., priority 1999, dated 2004).

Settings: in water at 20-25° C.

| SMILES | solubility in water |
| --- | --- |
| ClCCl [dichloromethane] | 1.32 % (by weight) |
| CCOC(C)=O [ethyl acetate] | 8.70 % (by weight) |
